Laboratory results taken from the supplement of paper PMC10307832.

Columns and labels:
Assay in all cases: relative viability (nuclei count vs DMSO), 5 days (fraction); higher = more cells survive
IDH-C35 + AZD7762 = compound: Cc1ccccc1C(C(=O)NC1CCCCC1)N(C(=O)Cn1ccnc1C)c1cccc(F)c1 [IDH-C35] + NC(=O)Nc1cc(-c2cccc(F)c2)sc1C(=O)N[C@H]1CCCNC1 [AZD7762] (partner 0.2 µM)
Procedure, shortened: (§1)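 The day after seeding in 1536-well plates, lung cancer cell lines were treated by pin tool with a single drug, or with a fixed anchor-drug dose together with five library-drug doses (not always all listed) in √10 steps. After 5 days, a combined fix-and-stain solution (final 0.05% Triton X-100, 1% formaldehyde, 1 ug/ml Hoechst) was added. Nuclei counted on 4× images gave relative viability as treated counts over vehicle counts, reported as the median of duplicate plates.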

[1] = compound: CC1=C(C(=NN1)C)CC2=C(C3=C(S2)N(C(=O)N(C3=O)C)CC(C)C)C(=O)N4C[C@@H](CO4)O + C[C@@H](Oc1cc(-c2cnn(C3CCNCC3)c2)cnc1N)c1c(Cl)ccc(F)c1Cl [Crizotinib] (partner 1 µM)
Procedure, shortened: as §1

IDH-C35 + Bortezomib = compound: Cc1ccccc1C(C(=O)NC1CCCCC1)N(C(=O)Cn1ccnc1C)c1cccc(F)c1 [IDH-C35] + CC(C)C[C@H](NC(=O)[C@H](Cc1ccccc1)NC(=O)c1cnccn1)B(O)O [Bortezomib] (partner 0.002 µM)
Procedure, shortened: as §1

[2] = compound: CC1=C(C(=NN1)C)CC2=C(C3=C(S2)N(C(=O)N(C3=O)C)CC(C)C)C(=O)N4C[C@@H](CO4)O + CC(C)C[C@H](NC(=O)[C@H](Cc1ccccc1)NC(=O)c1cnccn1)B(O)O [Bortezomib] (partner 0.002 µM)
Procedure, shortened: as §1

Cell Line	relative viability (IDH-C35 + AZD7762; first compound 0.08 µM)	relative viability (IDH-C35 + AZD7762; first compound 0.253 µM)	relative viability (IDH-C35 + AZD7762; first compound 0.8 µM)	relative viability (IDH-C35 + AZD7762; first compound 2.53 µM)	relative viability (IDH-C35 + AZD7762; first compound 8 µM)	relative viability ([1]; first compound 0.0025 µM)	relative viability ([1]; first compound 0.007906 µM)	relative viability ([1]; first compound 0.025 µM)	relative viability ([1]; first compound 0.07906 µM)	relative viability ([1]; first compound 0.25 µM)	relative viability (IDH-C35 + Bortezomib; first compound 0.08 µM)	relative viability (IDH-C35 + Bortezomib; first compound 0.253 µM)	relative viability (IDH-C35 + Bortezomib; first compound 0.8 µM)	relative viability (IDH-C35 + Bortezomib; first compound 2.53 µM)	relative viability (IDH-C35 + Bortezomib; first compound 8 µM)	relative viability ([2]; first compound 0.0025 µM)	relative viability ([2]; first compound 0.007906 µM)	relative viability ([2]; first compound 0.025 µM)	relative viability ([2]; first compound 0.07906 µM)	relative viability ([2]; first compound 0.25 µM)
EMC-BAC-2	1.1	1.12	1.16	1.18	1.16	0.806	0.866	0.753	0.788	0.866	1.01	1.08	1.13	1.09	1.11	1.15	1.15	1.04	1.06	1.1
LK-2	0.422	0.542	0.37	0.444	0.336	0.234	0.206	0.218	0.276	0.204	–	–	–	–	–	–	–	–	–	–
NCI-H1944	0.587	0.731	0.492	0.462	0.491	1.15	1.25	1.15	1.06	1.08	–	–	–	–	–	–	–	–	–	–
SW 1573	–	–	–	–	–	0.955	0.866	0.798	0.786	0.812	1.06	1.19	0.967	1.06	1.05	1.09	1.13	1.1	1.07	0.893
NCI-H2009	–	–	–	–	–	0.966	1.03	1.06	1.09	1.11	1.13	1.01	1.04	1.03	0.874	1.03	1.08	0.975	1.09	1.13
COR-L23	–	–	–	–	–	0.679	0.56	0.445	0.403	0.386	0.927	0.995	1.01	0.983	0.909	1.07	0.895	0.888	0.754	0.865
NCI-H1299	–	–	–	–	–	0.961	0.993	0.923	0.941	0.948	1.02	1.01	1.03	0.964	1.03	1.03	0.946	0.975	1.01	1.01
NCI-H1650	–	–	–	–	–	1.05	1.08	0.973	1.04	1.06	0.227	0.205	0.229	0.213	0.213	0.218	0.203	0.234	0.17	0.189
NCI-H1793	0.46	0.446	0.46	0.349	0.443	–	–	–	–	–	–	–	–	–	–	–	–	–	–	–
COR-L 105	–	–	–	–	–	0.969	0.738	0.668	0.748	0.771	0.902	0.943	0.752	0.66	0.489	0.841	0.763	0.882	0.73	0.802
NCI-H2228	–	–	–	–	–	0.421	0.523	0.473	0.505	0.469	0.968	0.857	0.898	1.09	0.818	0.996	1.09	1.11	0.97	1.47
NCI-H1648	–	0.578	0.781	0.687	0.703	–	–	–	–	–	–	–	–	–	–	–	–	–	–	–
NCI-H661	–	–	–	–	–	–	0.965	0.938	0.988	1.07	0.953	0.809	0.837	0.828	0.761	1	1.01	0.692	0.882	0.635
NCI-H1563	–	–	–	–	–	0.91	0.92	0.87	0.889	0.892	0.854	0.937	0.844	0.909	0.757	0.943	0.938	0.938	0.811	0.818
A549	–	–	–	–	–	0.763	0.805	0.663	0.858	1.07	–	–	–	–	–	–	–	–	–	–
NCI-H522	0.845	0.934	0.868	0.788	0.985	–	–	–	–	–	–	–	–	–	–	–	–	–	–	–
NCI-H2170	1.04	0.919	0.899	0.786	0.757	1.19	1.37	1.24	1.13	1.26	–	–	–	–	–	–	–	–	–	–
SW 900	0.564	0.787	–	0.505	0.549	–	–	–	–	–	–	–	–	–	–	–	–	–	–	–
NCI-H1395	0.396	0.408	0.407	0.446	0.403	–	–	–	–	–	–	–	–	–	–	–	–	–	–	–
IA-LM	–	–	–	–	–	0.924	0.743	0.838	0.885	1.03	0.855	0.87	0.844	0.924	0.769	0.923	0.652	0.815	1	0.883
NCI-H358	0.609	0.544	0.477	0.492	0.426	0.639	0.543	0.566	0.66	0.7	–	–	–	–	–	–	–	–	–	–
EBC-1	–	–	–	–	–	0.219	0.182	0.191	0.214	0.184	0.544	0.575	0.493	0.613	0.506	0.602	0.553	0.588	0.639	0.648
